From ChEMBL document CHEMBL1201862, “PubChem BioAssay data set” (2004)
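These data come from cells grown in 96-well plates and exposed to compound for 48 hours at five concentrations. Here, GI50 denotes the concentration required for 50% inhibition of growth.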 Active and inactive are the calls of the source. No stated cut-off is given here; in the data, active = GI50 up to about 1.1 µM and inactive = higher.

Assays:
Test in all cases: NCI tumour cell line growth inhibition, 48 h
[1] = system: 786-0
[2] = system: A549
[3] = system: ACHN
[4] = system: CCRF-CEM
[5] = system: EKVX
[6] = system: HL-60
[7] = system: IGROV-1
[8] = system: MDA-MB-435
[9] = system: MDA-N
[10] = system: NCI-H23
[11] = system: NCI-H460
[12] = system: NCI-H522
[13] = system: OVCAR-5
[14] = system: SF-295
[15] = system: SF-539
[16] = system: SK-MEL-5
[17] = system: SNB-19
[18] = system: U-251
[19] = system: UACC-62
[20] = system: UO-31

SMILES | GI50 [1] | GI50 [2] | GI50 [3] | GI50 [4] | GI50 [5] | GI50 [6] | GI50 [7] | GI50 [8] | GI50 [9] | GI50 [10] | GI50 [11] | GI50 [12] | GI50 [13] | GI50 [14] | GI50 [15] | GI50 [16] | GI50 [17] | GI50 [18] | GI50 [19] | GI50 [20]
O=[N+]([O-])c1ccc(C2=Nn3c(nnc3-c3ccc(Cl)cc3)SC2)o1 | 10 µM (inactive) | 14.3 µM (inactive) | 13.9 µM (inactive) | 2.65 µM (inactive) | 10.7 µM (inactive) | 0.989 µM (active) | 6 µM (inactive) | 2.08 µM (inactive) | 6.17 µM (inactive) | 7.94 µM (inactive) | 6.75 µM (inactive) | 0.923 µM (active) | 18.3 µM (inactive) | 10.9 µM (inactive) | 8.81 µM (inactive) | 10.8 µM (inactive) | 13.3 µM (inactive) | 14.1 µM (inactive) | 11.1 µM (inactive) | 3.5 µM (inactive)
C/C=C/[C@@H]1[C@H]2C(=O)[C@]3(Cl)[C@@H](/C=C/C)[C@@H]3C(=O)[C@@]12Cl | 46.8 µM (inactive) | > 100 µM (inactive) | > 100 µM (inactive) | 52 µM (inactive) | > 100 µM (inactive) | > 100 µM (inactive) | > 100 µM (inactive) | > 100 µM (inactive) | > 100 µM (inactive) | > 100 µM (inactive) | > 100 µM (inactive) | > 100 µM (inactive) | > 100 µM (inactive) | > 100 µM (inactive) | > 100 µM (inactive) | > 100 µM (inactive) | > 100 µM (inactive) | 85.3 µM (inactive) | > 100 µM (inactive) | > 100 µM (inactive)
CCOC(=O)C(Cc1ccc(O)cc1)Nc1nc(=O)c2c(=O)oc(Cl)cc2o1 (centres undefined) | 9.12 µM (inactive) | 16.1 µM (inactive) | 12.2 µM (inactive) | 2.7 µM (inactive) | 12.4 µM (inactive) | 2.84 µM (inactive) | 5.09 µM (inactive) | 4.52 µM (inactive) | 2.85 µM (inactive) | 10.9 µM (inactive) | 16.4 µM (inactive) | 4.13 µM (inactive) | 17.8 µM (inactive) | 16 µM (inactive) | 5.79 µM (inactive) | 8.15 µM (inactive) | 10.8 µM (inactive) | 7.19 µM (inactive) | 11.4 µM (inactive) | 10.9 µM (inactive)
NC(=O)c1cc(N(CCO)CCO)c([N+](=O)[O-])cc1[N+](=O)[O-] | > 100 µM (inactive) | > 100 µM (inactive) | > 100 µM (inactive) | > 100 µM (inactive) | > 100 µM (inactive) | > 100 µM (inactive) | > 100 µM (inactive) | > 100 µM (inactive) | > 100 µM (inactive) | > 100 µM (inactive) | > 100 µM (inactive) | > 100 µM (inactive) | > 100 µM (inactive) | > 100 µM (inactive) | > 100 µM (inactive) | > 100 µM (inactive) | > 100 µM (inactive) | > 100 µM (inactive) | > 100 µM (inactive) | > 100 µM (inactive)
S=C(N/N=C(/c1ccccc1)c1ccccn1)N1CCCCC1 | < 0.0286 µM (active) | < 0.0302 µM (active) | < 0.0443 µM (active) | < 0.0134 µM (active) | < 0.0318 µM (active) | 0.01 µM (active) | < 0.0164 µM (active) | 0.134 µM (active) | < 0.038 µM (active) | 0.0459 µM (active) | < 0.0211 µM (active) | < 0.0344 µM (active) | 0.0455 µM (active) | < 0.031 µM (active) | 0.424 µM (active) | < 0.0249 µM (active) | 0.966 µM (active) | < 0.0244 µM (active) | 0.16 µM (active) | 0.0716 µM (active)
NC1=Nc2ccccc2Sc2nnc(-c3ccc(Cl)cc3)n21 | 24 µM (inactive) | 49.3 µM (inactive) | 47 µM (inactive) | 14.8 µM (inactive) | 75.3 µM (inactive) | 8.59 µM (inactive) | 48.8 µM (inactive) | > 100 µM (inactive) | > 100 µM (inactive) | > 100 µM (inactive) | 21.9 µM (inactive) | 8.18 µM (inactive) | > 100 µM (inactive) | 29.6 µM (inactive) | 26.2 µM (inactive) | 68.5 µM (inactive) | 46.8 µM (inactive) | 13.7 µM (inactive) | 61.4 µM (inactive) | > 100 µM (inactive)
C=CCCON(C(=O)OC(C)(C)C)C(C)(C)C | > 100 µM (inactive) | > 100 µM (inactive) | > 100 µM (inactive) | > 100 µM (inactive) | > 100 µM (inactive) | > 100 µM (inactive) | > 100 µM (inactive) | > 100 µM (inactive) | > 100 µM (inactive) | > 100 µM (inactive) | > 100 µM (inactive) | > 100 µM (inactive) | > 100 µM (inactive) | > 100 µM (inactive) | > 100 µM (inactive) | > 100 µM (inactive) | > 100 µM (inactive) | > 100 µM (inactive) | > 100 µM (inactive) | > 100 µM (inactive)
O=C(CN1CCCCC1)CC(O)(C(F)(F)F)C(F)(F)F | > 100 µM (inactive) | > 100 µM (inactive) | > 100 µM (inactive) | > 100 µM (inactive) | > 100 µM (inactive) | > 100 µM (inactive) | > 100 µM (inactive) | > 100 µM (inactive) | > 100 µM (inactive) | > 100 µM (inactive) | > 100 µM (inactive) | > 100 µM (inactive) | > 100 µM (inactive) | > 100 µM (inactive) | > 100 µM (inactive) | > 100 µM (inactive) | > 100 µM (inactive) | > 100 µM (inactive) | > 100 µM (inactive) | > 100 µM (inactive)
O=Cc1[nH]c(=O)[nH]c(=O)c1C(=O)O | > 100 µM (inactive) | > 100 µM (inactive) | > 100 µM (inactive) | > 100 µM (inactive) | > 100 µM (inactive) | > 100 µM (inactive) | > 100 µM (inactive) | > 100 µM (inactive) | > 100 µM (inactive) | > 100 µM (inactive) | > 100 µM (inactive) | > 100 µM (inactive) | > 100 µM (inactive) | > 100 µM (inactive) | > 100 µM (inactive) | > 100 µM (inactive) | > 100 µM (inactive) | > 100 µM (inactive) | > 100 µM (inactive) | > 100 µM (inactive)
CC1=C2C(=O)c3ccccc3C(=O)[C@H]2[C@H]2CCO[C@H]2O1 | 18.5 µM (inactive) | 32.2 µM (inactive) | 20.9 µM (inactive) | 25.4 µM (inactive) | 30.5 µM (inactive) | 27.7 µM (inactive) | 14.2 µM (inactive) | 20.7 µM (inactive) | 19.2 µM (inactive) | 20.1 µM (inactive) | 21 µM (inactive) | 16.3 µM (inactive) | 23.7 µM (inactive) | 23 µM (inactive) | 22.1 µM (inactive) | 15.6 µM (inactive) | 37 µM (inactive) | 24.2 µM (inactive) | 20.4 µM (inactive) | 18.1 µM (inactive)
CC1(C)OC1COc1c2occc2cc2ccc(=O)oc12 (centres undefined) | > 100 µM (inactive) | 67.6 µM (inactive) | > 100 µM (inactive) | > 100 µM (inactive) | 58.6 µM (inactive) | 70.5 µM (inactive) | > 100 µM (inactive) | > 100 µM (inactive) | > 100 µM (inactive) | > 100 µM (inactive) | 40.6 µM (inactive) | > 100 µM (inactive) | > 100 µM (inactive) | > 100 µM (inactive) | > 100 µM (inactive) | 86.3 µM (inactive) | > 100 µM (inactive) | > 100 µM (inactive) | 33.1 µM (inactive) | 72.4 µM (inactive)
O=c1[nH]nc(-c2ccccc2)n1Nc1ccccc1 | > 100 µM (inactive) | > 100 µM (inactive) | > 100 µM (inactive) | > 100 µM (inactive) | > 100 µM (inactive) | > 100 µM (inactive) | > 100 µM (inactive) | > 100 µM (inactive) | > 100 µM (inactive) | > 100 µM (inactive) | > 100 µM (inactive) | > 100 µM (inactive) | > 100 µM (inactive) | > 100 µM (inactive) | > 100 µM (inactive) | > 100 µM (inactive) | > 100 µM (inactive) | > 100 µM (inactive) | > 100 µM (inactive) | > 100 µM (inactive)
COc1cc(CNC(=O)CCCCCCCCCCSSCCCCCCCCCCC(=O)NCc2ccc(O)c(OC)c2)ccc1O | > 10 µM (inactive) | > 10 µM (inactive) | > 10 µM (inactive) | > 10 µM (inactive) | > 10 µM (inactive) | > 10 µM (inactive) | > 10 µM (inactive) | > 10 µM (inactive) | > 10 µM (inactive) | > 10 µM (inactive) | > 10 µM (inactive) | 0.918 µM (active) | > 10 µM (inactive) | > 10 µM (inactive) | > 10 µM (inactive) | > 10 µM (inactive) | > 10 µM (inactive) | > 10 µM (inactive) | > 10 µM (inactive) | 
CNC1Cc2c[nH]c3cccc(c23)C12C=C(C)C(=O)O2 (centres undefined) | > 100 µM (inactive) | > 100 µM (inactive) | > 100 µM (inactive) | > 100 µM (inactive) | > 100 µM (inactive) | > 100 µM (inactive) | > 100 µM (inactive) | > 100 µM (inactive) | > 100 µM (inactive) | > 100 µM (inactive) | > 100 µM (inactive) | > 100 µM (inactive) | > 100 µM (inactive) | > 100 µM (inactive) | > 100 µM (inactive) | > 100 µM (inactive) | > 100 µM (inactive) | > 100 µM (inactive) | > 100 µM (inactive) | > 100 µM (inactive)
